Results as given in publication PMC5802399 (Nature, 2017).
Read-outs that look alike come from different tables or passages of the source. Bridge positions count the residues as written; N and C are the ends. Ends that are not written are not given here. Peptide text beside a SMILES is read from it.

Assays:
HK/X31 (H3N2), group 2 = format: cell-based, Influenza A
[1] = format: physicochemical; conditions: pH 7.4
[2] = system: CA09 influenza virus (H1N1); format: cell-based, Influenza A H1N1
[3] = format: physicochemical; conditions: pH 7.4; remark: listed apart in the source
[4] = system: group-1 influenza strains (H1N1, H5N1 and H6N2); format: cell-based, Influenza A
PR8 influenza virus = format: cell-based, Influenza A H1N1
H1N1 CA09 virus [5] = system: H1N1 CA09 virus; set-up: species or system BALB/c mice; conditions: mouse, in vivo
H1N1 CA09 virus [6] = system: H1N1 CA09 virus; set-up: species or system BALB/c mice; conditions: mouse, in vivo; remark: listed apart in the source

Question: Which “neutralization of H3N2” value (HK/X31 (H3N2), group 2) does the source give for `CC[C@H](C)[C@@H]1NC(=O)[C@H](CCC(=O)O)NC(=O)[C@H](C)NC(=O)[C@H](C)NC(=O)[C@H]([C@@H](C)O)NC(=O)[C@H](CCC(N)=O)NC(=O)[C@@H]2CSSC[C@H](NC(=O)[C@H](CC(N)=O)NC(=O)CNC(=O)[C@H](CC(N)=O)NC(=O)[C@H](CC(=O)O)NC(=O)[C@H](C(C)C)NC(=O)[C@H](CCSC)NC(=O)[C@H]([C@@H](C)CC)NC(=O)[C@H](CCCCN)NC(=O)[C@H](C(C)C)NC(=O)[C@H]([C@@H](C)O)NC(=O)[C@H](Cc3ccc(O)cc3)NC(=O)CNC(=O)[C@H](Cc3ccccc3)NC(=O)[C@H](C)NC(=O)[C@H](CCCNC(=N)N)NC(=O)[C@H](Cc3c[nH]c4ccccc34)NC1=O)C(=O)N[C@@H](CCCNC(=N)N)C(=O)N[C@@H](CC(C)C)C(=O)N[C@@H](Cc1c[nH]cn1)C(=O)N[C@@H](C(C)C)C(=O)N[C@H](C(=O)O)CSSC[C@H](N)C(=O)N[C@@H]([C@@H](C)CC)C(=O)N[C@@H](CCC(=O)O)C(=O)N[C@@H](CCC(N)=O)C(=O)N[C@@H](CO)C(=O)N[C@@H](Cc1ccccc1)C(=O)N[C@@H]([C@@H](C)O)C(=O)N[C@@H]([C@@H](C)O)C(=O)N[C@@H](CC(C)C)C(=O)N[C@@H](Cc1ccccc1)C(=O)N[C@@H](C)C(=O)N2` [HB1.6928.2.3] (H-CIEQSFTTLFACQTAAEIWRAFGYTVKIMVDNGNCRLHVC-OH; disulfide 1-40, 12-35; N-terminus and C-terminus assumed) here?
Answer: The value was “no neutralization”.

Question: What about the “reduction of binding activity after incubation at 80 °C” value [1] of the same compound?
Answer: Its value is “no detectable loss of binding”.

Question: What about the “EC50 for Cal09 (CA09), fold lower than FI6v3 or HB36.6” value [2] of the same compound?
Answer: The value was “more than 100 fold”.

Question: And the “neutralization of CA09 virus” value [2]?
Answer: Its value is “strongly neutralized”.

Question: What about the Tm [3] of the same compound?
Answer: The Tm was greater than 95 °C.

Question: And the “efficiency (EC50) in inhibiting infection, compared with HB36.6 and FI6v3” value [4]?
Answer: The value was “most efficiently inhibited infection”.

Question: What about the “neutralization of PR8 virus” value (PR8 influenza virus) of the same compound?
Answer: Its value is “strongly neutralized”.

Question: And the survival (H1N1 CA09 virus [5])?
Answer: Its survival is 100%.

Question: And the weight loss (H1N1 CA09 virus [5])?
Answer: Its weight loss is “less than 10%”.

Question: What about the “protection after intravenous administration” value (H1N1 CA09 virus [6]) of the same compound?
Answer: The value was “little protection”.

Question: What about the “protection after repeated administration compared with no prior dosing” value (H1N1 CA09 virus [6]) of the same compound?
Answer: Its value is “remains equally protective”.

Question: What about the survival (H1N1 CA09 virus [6]) of the same compound?
Answer: The survival was 100%.

Question: For “HB1.5702.3: chemically synthesized HA binder (TSGVRATSKFAALIAAEIAREFGYTVDVQEKNGEWRVVFD)”, which “trypsin concentration above which gel bands weaken (proteolytic degradation)” value (trypsin) is on record?
Answer: Its value is greater than 2.86 µM.

Question: For “HB1.6394.2: chemically synthesized HA binder containing disulfides (CQEYRFTNPFACQIALEILRDFGYACTVQTINGECRVRCC; disulfide (positions not given here))”, which degradation by trypsin (trypsin) is on record?
Answer: Its degradation by trypsin is “no degradation”.

Question: With “HB1.6928.2: chemically synthesized HA binder containing disulfides (CIEQSFTTLFACQTAAEIWRAFGYTVKIMVDNGNCRLHVC; disulfide (positions not given here))” as the compound, how does the degradation by trypsin (trypsin) read?
Answer: Its degradation by trypsin is “no degradation”.

Question: Which Tm [3] does the source give for “TMTSITTSPFAAEIAARIWAEFGYTVRIETRGKTVHVTVD [HB1.6811.3]” here?
Answer: The Tm was 70 °C.

Question: For “TSGVRATSKFAALIAAEIAREFGYTVDVQEKNGEWRVVFD [HB1.5702.3.3]”, which Tm [3] is on record?
Answer: Its Tm is 70 °C.

Question: Which Tm [3] does the source give for “TSRVRATSKFAALIAAEIAREFGYTVDVQEVNGQWEVTFD [HB1.5702.2]” here?
Answer: Its Tm is 72 °C.
